The results in this text go back to patent publication US8598084B2, “Synergistic herbicide/insecticide composition containing certain pyridine carboxylic acids and certain insecticides” (priority 2010, dated 2013).

Assay type in all cases: in vivo
For assay [1], the system named is Russian thistle (Salsola iberica L; SASKR). The assay is described as follows: Postemergence herbicidal activity of mixtures, greenhouse, visual injury vs control. Particulars: for pest or weed control at 1.25 g/ha: 1.25 g/ha alone. On the procedure: (§1) Evaluation of Postemergence Herbicidal Activity of Mixtures in Cereal Crops
(§2) Seeds of the desired test plant species were planted in Sun Gro MetroMix® 306 planting mixture, which typically has a pH of 6.0 to 6.8 and an organic matter content of about 30 percent, in plastic pots with a surface area of 103.2 square centimeters (cm^2). When required to ensure good germination and healthy plants, a fungicide treatment and/or other chemical or physical treatment was applied. The plants were grown for 7-36 days (d) in a greenhouse with an approximate 14 hour (h) photoperiod which was maintained at about 18° C. during the day and 17° C. during the night. Nutrients and water were added on a regular basis and supplemental lighting was provided with overhead metal halide 1000-Watt lamps as necessary. The plants were employed for testing when they reached the second or third true leaf stage.
(§3) Treatments consisted of an insecticidal compound (as listed in Tables 1 through 18) and the cereal herbicide, 4-amino-3-chloro-6-(4-chloro-2-fluoro-3-methoxyphenyl)pyridine-2-carboxylic acid, alone and in combination. Weighed amounts of esters (methyl) or salts (triethylammonium, TEA) of 4-amino-3-chloro-6-(4-chloro-2-fluoro-3-methoxyphenyl)pyridine-2-carboxylic acid (Compound I) were placed in 25 milliliter (mL) glass vials and dissolved in a volume of 97:3 volume per volume (v/v) acetone/dimethyl sulfoxide (DMSO) to obtain 4.5 milligrams active ingredient per mL (mg ai/mL) concentrated solutions. […] The concentrated solutions of Compound I were diluted to 1.5 mg ai/mL with the addition of 2 volumes of an aqueous mixture containing acetone, water, isopropyl alcohol, DMSO, Agri-dex crop oil concentrate, and Triton® X-77 surfactant in a 64.7:26.0:6.7:2.0:0.7:0.01 v/v ratio. A dilution solution was prepared by mixing 1 volume of 97:3 v/v acetone/DMSO and 2 volumes of an aqueous mixture containing acetone, water, isopropyl alcohol, DMSO, Agri-dex crop oil concentrate, and Triton® X-77 surfactant in a 64.7:26.0:6.7:2.0:0.7:0.01 v/v ratio. Compound requirements are based upon a 12 mL application volume at a rate of 187 liters per hectare (L/ha). The concentrated solutions of the cereal insecticides were prepared following the same procedure. Weighed amounts of insecticide were placed in 25 milliliter (mL) glass vials and dissolved in a volume of 97:3 v/v acetone/DMSO to obtain concentrated insecticide solutions. The concentrated solutions of the safener were prepared following the same procedure. Weighed amounts of safener were placed in 25 mL glass vials and dissolved in a volume of 97:3 v/v acetone/DMSO to obtain concentrated safener solutions. The concentrated solutions were diluted to 0.75 mg/mL with an aqueous mixture of 1.5% v/v of Agri-dex crop oil concentrate.
(§4) Spray solutions of the cereal herbicide and the insecticidal compound mixtures were prepared by adding the concentrated solutions to the appropriate amount of dilution solution to form 12 mL spray solution with active ingredients in combinations. Spray solutions of the cereal herbicide, herbicide safener and the insecticidal compound mixtures were prepared by adding the concentrated solutions to the appropriate amount of dilution solution to form 12 mL spray solution with active ingredients in combinations. Formulated compounds were applied to the plant material with an overhead Mandel track sprayer equipped with 8002E nozzles calibrated to deliver 187 L/ha over an application area of 0.503 square meters (m^2) at a spray height of 18 inches […] above average plant canopy. Control plants were sprayed in the same manner with the solvent blank.
(§5) The treated plants and control plants were placed in a greenhouse as described above and watered by sub-irrigation to prevent wash-off of the test compounds. […]

Assay [2] concerns bird's-eye speedwell (Veronica persica L; VERPE). The assay is described as above. Conditions: for pest or weed control at 1.25 g/ha: 1.25 g/ha alone. On the procedure:
as §1, §2, §3, §4, §5

Assay [3] relates to scented mayweed (Matricaria chamomila L; MATCH). The assay is described as above. On the procedure:
as §1, §2, §3, §4, §5

The test system of assay [4] is wild pansy (Viola tricolor L; VIOTR). Described as above. Particulars: for pest or weed control at 1.25 g/ha: 1.25 g/ha alone. On the procedure:
as §1, §2, §3, §4, §5

Assay [5] has as its system kochia (Kochia scoparia L; KCHSC). The description is as above. On the procedure:
as §1, §2, §3, §4, §5

Assay [6] deals with barley (Hordeum vulgare L; HORVS). As to the kind of experiment: Postemergence crop injury and safening, greenhouse, visual injury vs control. Particulars: crop injury. On the procedure:
as §1, §2, §3, §4, §5

Assay [7] relates to wheat (Triticum aestivum L; TRZAS). The assay is described as above. Particulars: crop injury. On the procedure: as §1, §2, §3, §4, §5
Where [8] appears, read: Salsola tragus, post-emergence, read-out: Ob (observed injury).
Where [9] appears, read: Veronica persica, post-emergence, read-out: Ob (observed injury).
[10] abbreviates: Viola tricolor, post-emergence, read-out: Ob (observed injury).

`Cc1c(COC(=O)[C@@H]2[C@H](/C=C(\Cl)C(F)(F)F)C2(C)C)cccc1-c1ccccc1` (relative stereo) [Bifenthrin, (2-methyl[1,1′-biphenyl]-3-yl)methyl (1R,3R)-rel-3-[(1Z)-2-chloro-3,3,3-trifluoro-1-propenyl]-2,2-dimethylcyclopropanecarboxylate, reference compound]: the pest or weed control at 1.6 g/ha in assay [1] (Salsola tragus, post-emergence, 1.6 g/ha alone, read-out: Ob (observed injury)) came to 0%; in assay [2] (Veronica persica, post-emergence, 1.6 g/ha alone, read-out: Ob (observed injury)), 0%; in assay [3] (Matricaria, post-emergence, 1.6 g/ha alone, read-out: Ob (observed injury)), 0%; in assay [4] (Viola tricolor, post-emergence, 1.6 g/ha alone, read-out: Ob (observed injury)) it was 0%.
As to `CC1(C)[C@H](/C=C(\Cl)C(F)(F)F)[C@@H]1C(=O)O[C@@H](C#N)c1cccc(Oc2ccccc2)c1` (relative stereo) [λ-Cyhalothrin, (R)-cyano(3-phenoxyphenyl)methyl (1S,3S)-rel-3-[(1Z)-2-chloro-3,3,3-trifluoro-1-propenyl]-2,2-dimethylcyclopropanecarboxylate], the pest or weed control at 1.25 g/ha in assay [1] (setting [8]), in assay [2] (setting [9]) and in assay [4] (setting [10]) was 0% in each case.
Regarding `CCOP(=S)(OCC)Oc1nc(Cl)c(Cl)cc1Cl` [Chlorpyrifos, O,O-diethyl O-(3,5,6-trichloro-2-pyridinyl) phosphorothioate, reference compound], the pest or weed control at 60 g/ha turned out to be 0% in assay [1] (Salsola tragus, post-emergence, 60 g/ha alone, read-out: Ob (observed injury)); 0% in assay [2] (Veronica persica, post-emergence, 60 g/ha alone, read-out: Ob (observed injury)); 0% in assay [5] (Bassia scoparia, post-emergence, 60 g/ha alone, read-out: Ob (observed injury)); 0% in assay [3] (Matricaria, post-emergence, 60 g/ha alone, read-out: Ob (observed injury)); 0% in assay [4] (Viola tricolor, post-emergence, 60 g/ha alone, read-out: Ob (observed injury)).
For `CCN(CC)CC.COc1c(Cl)ccc(-c2cc(N)c(Cl)c(C(=O)O)n2)c1F` [Compound I TEA salt], the “Ob (observed injury)” value is 80% in assay [1] (8.75 g/ha alone); 84% in assay [1] (17.5 g/ha alone); 86% in assay [1] (35 g/ha alone); 10% in assay [2] (8.75 g/ha alone); 40% in assay [2] (17.5 g/ha alone); 70% in assay [2] (35 g/ha alone). The “Ob (observed injury)” value turned out to be 40% in assay [5] (8.75 g/ha alone); 55% in assay [5] (17.5 g/ha alone); 65% in assay [5] (35 g/ha alone); 40% in assay [3] (8.75 g/ha alone); 67% in assay [3] (17.5 g/ha alone); 73% in assay [3] (35 g/ha alone). Besides, the “Ob (observed injury)” value is 23% in assay [4] (8.75 g/ha alone), 40% in assay [4] (17.5 g/ha alone) and 47% in assay [4] (35 g/ha alone).
For `CC1(C)C(C=C(Cl)Cl)C1C(=O)OC(C#N)c1ccc(F)c(Oc2ccccc2)c1` (stereo not drawn) [Cyfluthrin, cyano(4-fluoro-3-phenoxyphenyl)methyl 3-(2,2-dichloroethenyl)-2,2-dimethylcyclopropanecarboxylate, reference compound], the pest or weed control at 3.75 g/ha turned out to be 0% in assay [1] (Salsola tragus, post-emergence, 3.75 g/ha alone, read-out: Ob (observed injury)); 0% in assay [5] (Bassia scoparia, post-emergence, 3.75 g/ha alone, read-out: Ob (observed injury)); 0% in assay [3] (Matricaria, post-emergence, 3.75 g/ha alone, read-out: Ob (observed injury)); 0% in assay [4] (Viola tricolor, post-emergence, 3.75 g/ha alone, read-out: Ob (observed injury)).
In the case of `CC1(C)[C@H](C(=O)O[C@H](C#N)c2cccc(Oc3ccccc3)c2)[C@@H]1C=C(Br)Br` [Deltamethrin, (S)-cyano(3-phenoxyphenyl)methyl (1R,3R)-3-(2,2-dibromoethenyl)-2,2-dimethylcyclopropanecarboxylate, reference compound], the pest or weed control at 1.25 g/ha stood at 0% in assay [1] (setting [8]); 0% in assay [2] (setting [9]); 0% in assay [5] (Bassia scoparia, post-emergence, 1.25 g/ha alone, read-out: Ob (observed injury)); 0% in assay [3] (Matricaria, post-emergence, 1.25 g/ha alone, read-out: Ob (observed injury)); 0% in assay [4] (setting [10]).
Turning to `CNC(=O)CSP(=S)(OC)OC` [Dimethoate, O,O-dimethyl S-[2-(methylamino)-2-oxoethyl]phosphorodithioate, reference compound], the pest or weed control at 170 g/ha in assay [1] (Salsola tragus, post-emergence, 170 g/ha alone, read-out: Ob (observed injury)) amounted to 0%; in assay [2] (Veronica persica, post-emergence, 170 g/ha alone, read-out: Ob (observed injury)), 0%; in assay [5] (Bassia scoparia, post-emergence, 170 g/ha alone, read-out: Ob (observed injury)) it was 0%; in assay [4] (Viola tricolor, post-emergence, 170 g/ha alone, read-out: Ob (observed injury)), 0%.
As to `N#CCNC(=O)c1cnccc1C(F)(F)F` [Flonicamid, N-(cyanomethyl)-4-(trifluoromethyl)-3-pyridinecarboxamide], the pest or weed control at 17.5 g/ha in assay [1] (Salsola tragus, post-emergence, 17.5 g/ha alone, read-out: Ob (observed injury)) stood at 0%; in assay [3] (Matricaria, post-emergence, 17.5 g/ha alone, read-out: Ob (observed injury)), 0%; in assay [4] (Viola tricolor, post-emergence, 17.5 g/ha alone, read-out: Ob (observed injury)) it was 0%.
As for `CCOC(=O)CC(SP(=S)(OC)OC)C(=O)OCC` (stereo not drawn) [Malathion, diethyl[(dimethoxythiophosphinothioyl)thio]butanedioate, reference compound], the pest or weed control at 280 g/ha in assay [1] (Salsola tragus, post-emergence, 280 g/ha alone, read-out: Ob (observed injury)) turned out to be 0%; in assay [5] (Bassia scoparia, post-emergence, 280 g/ha alone, read-out: Ob (observed injury)) it was 0%; in assay [3] (Matricaria, post-emergence, 280 g/ha alone, read-out: Ob (observed injury)) it was 0%; in assay [4] (Viola tricolor, post-emergence, 280 g/ha alone, read-out: Ob (observed injury)), 0%. Also, the pest or weed control at 1120 g/ha in assay [4] (Viola tricolor, post-emergence, 1120 g/ha alone, read-out: Ob (observed injury)) worked out at 0%. Besides, the “Ob (observed injury)” value in assay [6] (280 g/ha alone), in assay [6] (1120 g/ha alone), in assay [7] (280 g/ha alone) and in assay [7] (1120 g/ha alone) was 0% in each case.
As to `Cc1nc(N(C)C)nc(OC(=O)N(C)C)c1C` [Pirimicarb, 2-(dimethylamino)-5,6-dimethyl-4-pyrimidinyl dimethylcarbamate, reference compound], the pest or weed control at 35 g/ha in assay [1] (Salsola tragus, post-emergence, 35 g/ha alone, read-out: Ob (observed injury)) was determined as 0%; in assay [2] (Veronica persica, post-emergence, 35 g/ha alone, read-out: Ob (observed injury)) it was 0%; in assay [5] (Bassia scoparia, post-emergence, 35 g/ha alone, read-out: Ob (observed injury)), 0%; in assay [3] (Matricaria, post-emergence, 35 g/ha alone, read-out: Ob (observed injury)), 0%; in assay [4] (Viola tricolor, post-emergence, 35 g/ha alone, read-out: Ob (observed injury)) it was 0%.
